# Experimental data published in US20100129347A1, “HERPES VIRUS INFECTION INHIBITOR, METHOD FOR INHIBITING INFECTION WITH HERPES VIRUS, AND USE THEREOF” (Osaka University, priority 2007, published 2010).
# System: HSV-1
# Assay: HSV-1-GFP infection of human PILR-transfected CHO-K1 cells with acyclovir as control (Example 3), GFP expression 18 hours later
# Format: cell-based
# Settings: acyclovir 100 μM or 500 μM, or mAb 10 μg/ml, added 30 minutes before virus; FIG. 10
# Method: HSV-1-GFP of 1.5×10^6 PFU was added to 5×10^4 CHO-K1 cells to which human PILR had been transfected, and expression of GFP was analyzed 18 hours later.
# 30 minutes before adding the virus, 100 μM or 500 μM of acyclovir, or 10 μg/ml of anti-human PILR mAb (M4) was added, and a ratio of infection with the virus was shown in FIG. 10 with a ratio of infection of cells to which nothing had been added (“control” in FIG. 10) being 100%.
compound,measurement,value
Nc1nc2c(ncn2COCCO)c(=O)[nH]1 [acyclovir],"inhibition of infection with HSV (ratio of infection, control = 100%)",did not inhibit infection
